Experimental data from patent publication US10072023B2, “Diarylethene compounds and uses thereof” (SWITCH MATERIALS, INC., priority 2011, dated 2018).

Legend:
Type in all cases: physicochemical
[1] = Solubility in indicated solvent; conditions: % wt soluble in triglyme
From the text: A compound with greater solubility allows for a formulation or material with a greater concentration of coloured molecule to be incorporated into a composition. This may allow for increasing the contrast ratio for a compound with a lesser absorbance at PSS. Inclusion of a solubilizing group in a compound according to various embodiments of the invention may increase solubility. Examples of solubilizing groups may include alkoxy or siloxy groups.

[2] = PSS and light composition (sunlight vs interior lighting); conditions: 2×10^−4 M in triglyme
From the text: The difference in PSS as a function of light source type was investigated. The light sources included direct sunlight (filtered through window glass) and interior lighting. Irradiance information and spectral profiles of light sources are provided in Table 9 and FIG. 2, respectively. Six compounds (2×10^−4 M solutions of S096, S094, S079, S044, S042 and S035 in triglyme) were investigated and compared for performance on the basis of maximum difference in darkening ability between sunlight and interior lighting conditions. Darkening ability is indicated by the absorbance at λmax in the visible light spectrum for the ring-closed isomer of the chromophore.
Samples were then moved away from the window (300 cm from window, with interior lighting on) to alter the light composition by reducing the sunlight component. […] Finally, samples were again irradiated to the darkest state under sunlight conditions (20 cm from window) and then subjected to interior lighting conditions only (sunlight blocked out with blinds), allowing the samples to fade to a lower PSS specific to these lighting conditions as shown in FIG. 3.
Sample darkening times were less than one minute, while sample photofading times ranged as high as 20 minutes. […]

[3] = Absorbance at photostationary state (PSS) under simulated sunlight or 365 nm light; design: λ max: unit not given here; conditions: for Absorbance at PSS, 365 nm: 365 nm light source; for Absorbance at PSS, 365 nm / Absorbance at PSS, full / Absorbance at PSS, +UV / λ max: 2.0×10^−5 M in triglyme; for sensitivity index: ratio of PSS under 365 nm light to PSS under full spectrum light (without UV blocking film); for Absorbance at PSS, full: simulated sunlight (QSUN solar simulator), no UV blocking film; for Absorbance at PSS, +UV: simulated sunlight with UV blocking film (cutoff 370 nm); for λ max: wavelength of maximum absorbance in the visible range, ring-closed isoform
In short: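 Compounds at 2.0×10^−5 M in triglyme, photofaded with visible light, then irradiated with simulated sunlight (xenon arc) or 365 nm light until the UV/Vis spectrum stabilized. Also irradiated through a UV-blocking film (370 nm cutoff); sensitivity index is PSS under 365 nm divided by PSS under full spectrum.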

SMILES | Solubility [1] | change in degree of coloration in response to variation in the light source [2] | Absorbance at PSS, 365 nm [3] | sensitivity index [3] | Absorbance at PSS, full [3] | Absorbance at PSS, +UV [3] | λ max [3]
CC(C)(C)c1ccc(-c2cc(C3=C(c4cc(-c5ccc(C(C)(C)C)cc5)sc4-c4ccc(C(C)(C)C)cc4)C(F)(F)C(F)(F)C3(F)F)c(-c3ccc(C(C)(C)C)cc3)s2)cc1 [S042] | 0.5 % wt | greatest change in degree of coloration | 0.233 | 2.40 | 0.097 | 0.04 | 612
CC(C)CCOc1ccc(-c2cc(C3=C(c4cc(-c5ccc(OCCC(C)C)cc5)sc4-c4ccc(OCCC(C)C)cc4)C(F)(F)C(F)(F)C3(F)F)c(-c3ccc(OCCC(C)C)cc3)s2)cc1 [S094, 3,3′-(perfluorocyclopent-1-ene-1,2-diyl)bis(2,5-bis(4-(isopentyloxy)phenyl)thiophene)] | – | greatest change in degree of coloration | 0.311 | 1.74 | 0.179 | 0.103 | 625
COCCC[Si](CCCOC)(CCCOC)c1ccc(-c2cc(C3=C(c4cc(-c5ccc([Si](CCCOC)(CCCOC)CCCOC)s5)sc4-c4ccc([Si](CCCOC)(CCCOC)CCCOC)s4)C(F)(F)C(F)(F)C3(F)F)c(-c3ccc([Si](CCCOC)(CCCOC)CCCOC)s3)s2)s1 [S138] | >20 % wt | – | 0.337 | 1.10 | 0.306 | 0.262 | 650
